Earlier results, collected in US20060057620A1, “Treatment of HIV infection” (priority 2004, published 2006).

System: circulating T-cells
Conditions: FIG. 1

In the case of alemtuzumab, the “time to full recovery of T-cells” value (after a single dose) is given as at least 3 months and the “killing of circulating T-cells (T-cell depletion)” value (single dose) is given as “able to kill all circulating T-cells”.
